The values below come from paper PMC6382874, “Succinylation-dependent mitochondrial translocation of PKM2 promotes cell survival in response to nutritional stress” (Cell Death & Disease, 2019).

Read-outs that look alike come from different tables or passages of the source. Peptide text beside a SMILES is read from it. * marks the point of attachment. Cbz = O=C(OCc1ccccc1)*

For orientation: IC50 means the concentration that gives 50% inhibition.

One experiment relates to MCF7 cells. Briefly: cell viability test, MCF7. It is filed as cell-based. The following applies: Homo sapiens, MCF7, 48 h, read-out: IC50 (MCF7). Here is the method:
(§1) We assessed the anti-tumor effects of compound 8 by evaluation of cancer cell viability. Compound 8 reduced cell viability with an IC50 of about 5 µM in MTT reduction assays in HCT116, MCF7, and H1299 cells (Table 2). […] To determine whether cancer cell death brought about by compound 8 is PKM2 dependent, PKM2 was knocked down in HCT116 cells using two different shRNA sequences that specifically targeted exon 10 without interfering with PKM1 expression. Compound 8 is an inhibitor which causes a loss of function of PKM2. If PKM2 is a specially targeted by compound 8, its knockdown should render cells more vulnerable to compound 8-mediated PKM2 inhibition since shRNA and compound 8 work synergistically by reducing the intracellular drug target concentration.
(§2) Cells were seeded in 96-well plates at 5000 cells/well in DMEM media overnight. Cells were treated with different concentrations of test compound for 48 h at 37 °C in 5% CO2. Cell viability was assayed with the MTS assay (Promega) and trypan blue staining according to the manufacturer’s instructions.

A further experiment relates to H1299 cells. Briefly: cell viability test, H1299. The following applies: Homo sapiens, NCI-H1299, 48 h, read-out: IC50 (H1299). Format: cell-based. Here is the method:
as §1, §2

A further experiment addresses T1, PKL (Homo sapiens, UniProt P30613).
T1 construct: purchased Sino Biological Inc
Kind of experiment: fluorescent PK-LDH coupled assay, PKL. It is filed as biochemical. Here is the method: (§3) Human cDNA for PKM2, PKM1, and VDAC3 were separately cloned into a pET28a (+) and pGEX-4T-1 vector with an N-terminal His-tag and N-terminal GST-tag and purified from the Escherichia coli strain BL21 (Invitrogen) using Ni–agarose beads and GST agarose beads (Qiagen) as described previously. PKL was purchased from Sino Biological Inc. in China.
(§4) Pyruvate kinase activity was measured with a fluorescent pyruvate kinase–lactate dehydrogenase coupled assay as described previously. All compounds were tested in a kinetic mode by coupling the generation of pyruvate by pyruvate kinase to the depletion of NADH through lactate dehydrogenase. For PKM2, 40 μL of buffer (50 mM Tris–HCl, pH 7.5, 10 mM KCl, 5 mM MgCl2), 1 μL of compound and 5 μL of enzyme solution were dispensed into Corning black solid 96-well plates and incubated for 15 min. Totally, 55 μL of substrate mix (final concentration, 0.5 mM PEP, 4.0 mM ADP, 0.12 mM NADH, 0.25 mM FBP, and 1 unit LDH) were then added, and the plates were placed in a FlexStation3 (Molecular Devices), followed by determination of NADH fluorescence at 30 s exposure intervals for 3–6 min. Data were collected on a FlexStation3.

The target of another experiment is T2, PKM1 (Homo sapiens, UniProt P14618).
T2 construct: His-tag (N); made in house; host or cells: Escherichia coli BL21
Briefly: fluorescent PK-LDH coupled assay, PKM1. Format: biochemical. Here is the method:
as §3, §4

The target in experiment [1] is PKM2 (Homo sapiens, UniProt P14618). Kind of experiment: fluorescent pyruvate kinase-lactate dehydrogenase (PK-LDH) coupled assay, PKM2. Format: biochemical. On the set-up: His-tag (N); made in house; host or cells: Escherichia coli BL21. Here is the method:
A random screening of an in-house small molecule library (~1000 total molecules) was undertaken to identify new PKM2 modulators, which can block the interaction of PKM2 and VDAC3. The activity of these test compounds was assessed with a fluorescent PK-LDH coupled assay by a previously reported method (Supplementary Figure S4a)[37]. […] We undertook structural optimization by chemical modification. We designed new compounds utilizing a methyl group instead of the NP-1 chlorine moiety. Synthesis of target compounds was carried out according to the six-step protocol outlined in Supplementary Figure S4d, which was based on a previously described procedure[39],[40].
as §3, §4

The next experiment concerns HCT116 cells. Kind of experiment: cell viability test, HCT116. Format: cell-based, human. The following applies: Homo sapiens, HCT-116, 48 h, read-out: IC50 (HCT116). Here is the method:
as §1, §2

Experiment [2] deals with PKM2 mitochondrial translocation. Briefly: PKM2 mitochondrial translocation (fractionation, western blot) in HCT116 cells. The following applies: for PKM2 mitochondrial translocation: HCT116, Supplementary Figure S1a. Format: cell-based, human. Here is the method: (§5) Fig. 6 Compound 8 blocks PKM2 mitochondrial translocation under nutritional stress and inhibits tumor growth in vivo. a Compound 8 blocks glucose starvation induced PKM2 mitochondrial translocation. Isolation of mitochondria and immunoblot of PKM2, tubulin and Tom 40 were carried out with or without compound 8 treatment. b Compound 8 disrupts interaction of PKM2 and VDAC3. HCT116 cells were transfected with HA-tagged PKM2, cells were harvested and subjected to stag pull down after 8 h 20 µM compound 8 treatment. c Compound 8 induces VDAC3 for degradation. cells were harvested and evaluated VDAC3 protein levels after 8 h 10 or 20 µM compound 8 treatment. d, e Compound 8 caused a decrease in the rate of NADH oxidation. After 8 h of treatment with 20 µM compound 8, HCT116 cells mitochondria were isolated for NADH oxidation assays. NAD/NADH ratios in HCT116 cell lysates were evaluated by LC–MS. f Compound 8 inhibited ATP production in HCT116 cells. g The tumor volume (n = 7) of HCT116 xenografts from mice with intraperitoneal injection of compound 8 and vehicle control
HCT116 cells were harvested and washed two times with cold PBS. Cells were then homogenized in a buffer (220 mM mannitol, 70 mM sucrose, 2 mM EGTA, 5 mM MOPS-Tris pH 7.4, 2 mM Taurine, 0.2% BSA). The homogenate was spun for 5 min at 800g.The supernatant containing the cytoplasmic and mitochondrial fractions were transferred to a fresh tube and spun for 5 min at 12,000g. The pellet contained the mitochondrial fraction and the supernatant contained the cytoplasmic fraction.
Cells were lysed in buffer containing 50 mM Tris pH8.0, 2 mM EDTA, 150 mM NaCl, 0.5% Nonidet P-40, 10% glycerol and protease inhibitor PMSF. Western blot analysis was carried out based on standard methods. The following commercial antibodies were used as probes: anti-Flag antibody (Sigma, F3165), anti-HA antibody (Sigma, H3663), anti-α-Tubulin (EasyBio, BE0026–100), anti-PKM2 (RuiYingBio, RLT3777), anti-TOM 40 (Santa Cruz sc-365467), anti-succinyllysine antibody (PTM BIO PTM-901), anti-GAPDH (SanJian).

The next experiment relates to tumor cell. The following applies: cited from earlier work.
The subject of experiment [3] is PKM2. On the set-up: method as in PMID 20005212. The following applies: high-throughput screen; cited from earlier work.
The subject of another experiment is VDAC3. Kind of experiment: VDAC3 protein level (western blot) in HCT116 cells. Format: cell-based, human. Particulars: 10 μM, 8 h, HCT116.
Description: HCT116 cell lysates were subject to immunoprecipitation with control IgG and anti-VDAC3 antibodies. d, e In vitro binding assay of purified His-tagged-PKM2 and GST-tagged-VDAC3. f K433E enhanced the interaction of PKM2 and VDAC3. Stagged-WT PKM2, a succinylation mimic K433E and a succinylation null mutant K433R and flag-VDAC3 were co-transfected into HCT116 cells for Stag bead pull down that specially pulls down Stagged proteins. g Glucose starvation enhanced the interaction of PKM2 and VDAC3. […]
as §5, with “Isolation of mitochondria and immunoblot of PKM2, tubulin and Tom 40 were carried out with or without compound 8 treatment. b Compound 8 disrupts interaction of PKM2 and VDAC3.” left out, “After 8 h of treatment with 20 µM compound 8, HCT116 cells mitochondria were isolated for NADH oxidation assays.” left out, “control […]” for “control”
(In western blotting, separated proteins are transferred to a membrane and probed.)

The next experiment concerns PKM2 succinylation. The following applies: 100 μM, 10 h, HCT116.

PKM2 (Homo sapiens, UniProt P14618), sequence (P14618 whole entry): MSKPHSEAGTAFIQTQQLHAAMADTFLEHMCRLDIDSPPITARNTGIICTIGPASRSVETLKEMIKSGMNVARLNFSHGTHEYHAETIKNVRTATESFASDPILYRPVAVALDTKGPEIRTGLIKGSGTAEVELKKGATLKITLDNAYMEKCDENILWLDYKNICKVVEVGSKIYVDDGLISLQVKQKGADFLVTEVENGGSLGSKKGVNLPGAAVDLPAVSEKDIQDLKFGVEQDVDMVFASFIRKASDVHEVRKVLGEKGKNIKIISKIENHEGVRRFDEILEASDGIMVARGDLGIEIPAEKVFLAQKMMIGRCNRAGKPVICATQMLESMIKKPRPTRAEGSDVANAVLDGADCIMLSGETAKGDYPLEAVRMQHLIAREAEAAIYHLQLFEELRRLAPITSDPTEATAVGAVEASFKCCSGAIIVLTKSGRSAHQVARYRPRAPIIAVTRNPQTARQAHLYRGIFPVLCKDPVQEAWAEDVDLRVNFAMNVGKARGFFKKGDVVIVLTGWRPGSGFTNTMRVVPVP
T2 sequence (P14618 1-531 isoform P14618-2): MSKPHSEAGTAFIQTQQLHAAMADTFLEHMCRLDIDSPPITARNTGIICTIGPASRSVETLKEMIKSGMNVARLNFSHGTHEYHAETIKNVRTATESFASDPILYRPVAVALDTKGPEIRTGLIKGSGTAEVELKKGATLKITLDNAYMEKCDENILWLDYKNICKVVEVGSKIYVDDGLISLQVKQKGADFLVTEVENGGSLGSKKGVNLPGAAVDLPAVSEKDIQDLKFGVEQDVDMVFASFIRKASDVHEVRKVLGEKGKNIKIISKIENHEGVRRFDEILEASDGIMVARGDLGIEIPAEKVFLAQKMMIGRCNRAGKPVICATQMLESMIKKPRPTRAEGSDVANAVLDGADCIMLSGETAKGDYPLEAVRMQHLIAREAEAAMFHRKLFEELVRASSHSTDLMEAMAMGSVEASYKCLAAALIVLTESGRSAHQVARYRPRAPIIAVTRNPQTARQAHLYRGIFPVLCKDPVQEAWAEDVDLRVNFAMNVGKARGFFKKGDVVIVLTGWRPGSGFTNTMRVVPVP
T1 sequence (P30613 1-543 isoform P30613-2, species assumed): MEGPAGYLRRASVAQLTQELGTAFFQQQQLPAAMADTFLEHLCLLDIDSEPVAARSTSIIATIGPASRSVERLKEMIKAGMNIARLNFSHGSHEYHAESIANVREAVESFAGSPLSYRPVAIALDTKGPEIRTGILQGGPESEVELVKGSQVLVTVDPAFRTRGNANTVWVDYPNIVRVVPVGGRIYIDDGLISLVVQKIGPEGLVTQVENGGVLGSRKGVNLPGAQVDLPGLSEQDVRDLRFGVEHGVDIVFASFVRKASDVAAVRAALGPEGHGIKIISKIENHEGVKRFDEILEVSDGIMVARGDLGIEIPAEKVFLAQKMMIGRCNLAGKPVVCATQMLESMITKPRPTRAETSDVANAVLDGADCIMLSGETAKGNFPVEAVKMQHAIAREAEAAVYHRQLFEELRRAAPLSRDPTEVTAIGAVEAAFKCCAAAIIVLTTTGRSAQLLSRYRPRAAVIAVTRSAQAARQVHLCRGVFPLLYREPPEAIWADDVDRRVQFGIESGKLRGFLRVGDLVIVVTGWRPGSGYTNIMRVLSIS
Description for PKM2 succinylation: Mitochondria and nuclear fractions were prepared from HCT116 cells under glucose starvation for 10 h. Immunofluorescence analysis was carried out after 10 h of glucose starvation. […] Analysis of PKM2 succinylation in whole-cell extracts prepared from HCT116 cells treated with increasing concentrations of glucose (0, 5, and 25 mM) or SIRT5 overexpression. Lysates prepared from these cells were pulled down with Flag beads and analyzed with antibody to succinylated lysine. d Effect of glucose starvation on endogenous PKM2 succinylation in cells. Analysis of PKM2 succinylation in whole-cell extracts prepared from HCT116 cells treated with increasing concentrations of glucose (0 and 25 mM). […] HCT116 cells were transfected with expression constructs of GFP-tagged vector control GFP-SIRT5. After 10 h glucose starvation, western blot analysis of cytosolic and mitochondrial fractions was performed to evaluate translocation of PKM2 from the cytosolic compartment to the mitochondria. […] 5000 HCT116 cells stably infected with Flag-PKM2 or Flag-PKM2 K433E virus were seeded into 96-well plates and live cell counts were measured in a blood cell counting chamber with trypan blue staining.

Consider `CC1=C(COP(N)(=O)N(CCCl)CCCl)C(=O)c2ccccc2C1=O` (stereo not drawn) [NP-1], for which the IC50 in the experiment on MCF7 cells is 17.5 ± 6.34 µM; in the experiment with H1299 cells it was 8.17 ± 1.92 µM; at PKL, 69.6 ± 6.26 µM; against PKM1 it was 13.7 ± 1.14 µM; against PKM2 [1], 2.93 ± 0.77 µM; in the experiment on HCT116 cells, 14.3 ± 3.57 µM. Further, the “PKM2 inhibitory activity compared with shikonin” value on PKM2 [1] (Supplementary Figure S4b) is reported as “more powerful than shikonin”. Moreover, on PKM2 [1] (Supplementary Figure S4c), the “selectivity for PKM2 over PKM1 and PKL” value was “highly selective, dose-dependent inhibition of PKM2 with less inhibition of PKM1 and PKL”.

Take “insulin: hormone used to stimulate HCT116 cells”: in experiment [2], the PKM2 mitochondrial translocation entry is on record as “did not increase PKM2 mitochondrial translocation”.

Turning to “epidermal growth factor: growth factor used to stimulate HCT116 cells”, the PKM2 mitochondrial translocation entry in experiment [2] is “did not increase PKM2 mitochondrial translocation”.

Turning to `Cc1ccc(C)n1-c1ccc(O)c(C(=O)O)c1` [Compound 3], the “suppression of tumor cell proliferation” value with tumor cell is on record as “little suppression of tumor cell proliferation below 200 µM”. Moreover, the PKM2 inhibition entry in the experiment on PKM2 [3] is “inhibits PKM2 activity at micromolar concentrations”.

As to `CC(C)C[C@@H](C=O)NC(=O)[C@H](CC(C)C)NC(=O)[C@H](CC(C)C)NC(=O)OCc1ccccc1` [MG132, reference compound] (Cbz-Leu-Leu-Leu-aldehyde), the VDAC3 protein level entry with VDAC3 is on record as “upregulated VDAC3”.

For the compound `O=C(O)CCC(=O)O` [succinic acid, reference compound], the “mitochondrial PKM2” value in experiment [2] (100 μM, 10 h, HCT116) is “increased mitochondrial PKM2”. The PKM2 succinylation result in the experiment on PKM2 succinylation is listed as “increased PKM2 succinylation”.

Consider `CC(C)=CC[C@@H](O)C1=CC(=O)c2c(O)ccc(O)c2C1=O` [Shikonin, reference compound], for which, in the experiment on tumor cell, the “induction of cell apoptosis” value is “induces cell apoptosis at low concentrations”. Besides, the concentration for half-maximal inhibition (IC50) was found to be 39.2 ± 6.53 µM on PKL (PK-LDH coupled assay, read-out: IC50 (PKL)) and 13 ± 3.37 µM on PKM1 (recombinant enzyme, PK-LDH coupled assay, read-out: IC50 (PKM1)).
